Measured values from paper PMC10734773, “Synthesis of benzoyl hydrazones having 4-hydroxy-3,5-dimethoxy phenyl ring, their biological activities, and molecular modeling studies on enzyme inhibition activities” (Turkish Journal of Chemistry, 2021).

Key:
[1] = target: T1, Tyrosinase (tyrosinase mushroom); assay: spectrophotometric dopachrome assay, […] nm; assay type: biochemical, Agaricus bisporus; conditions: L-DOPA, pH 6.8, 37 °C, 10 min preincubation
T1 construct: gene PPO3; native mushroom tyrosinase preparation, isoenzyme mixture not resolved; only 'mushroom' given

[2] = target: T2, BChE (butyrylcholinesterase from horse serum) (Equus caballus, UniProt P81908); assay: Ellman assay, […] nm; assay type: biochemical; conditions: butyrylthiocholine chloride, DTNB, pH 8.0, room conditions, 15 min preincubation
T2 construct: native enzyme preparation from horse serum
T2 sequence (P81908 whole entry): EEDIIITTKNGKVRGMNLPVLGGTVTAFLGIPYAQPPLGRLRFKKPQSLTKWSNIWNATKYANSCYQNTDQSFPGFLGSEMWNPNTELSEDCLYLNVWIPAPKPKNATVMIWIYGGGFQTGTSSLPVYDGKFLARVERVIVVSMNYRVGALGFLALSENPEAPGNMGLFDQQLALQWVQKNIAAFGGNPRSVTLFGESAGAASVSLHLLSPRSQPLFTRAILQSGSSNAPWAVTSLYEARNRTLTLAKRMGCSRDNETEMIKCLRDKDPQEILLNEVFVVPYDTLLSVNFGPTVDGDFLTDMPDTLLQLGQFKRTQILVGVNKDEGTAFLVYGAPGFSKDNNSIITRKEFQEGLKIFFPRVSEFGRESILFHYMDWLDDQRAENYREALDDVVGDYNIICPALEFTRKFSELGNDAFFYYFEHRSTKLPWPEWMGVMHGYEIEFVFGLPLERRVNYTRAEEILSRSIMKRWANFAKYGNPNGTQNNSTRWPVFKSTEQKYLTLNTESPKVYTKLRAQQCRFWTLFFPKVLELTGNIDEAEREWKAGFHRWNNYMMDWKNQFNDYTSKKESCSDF

[3] = target: AChE (acetylcholinesterase from eel) (Electrophorus electricus, UniProt O42275); conditions: acetylthiocholine-type substrate (AcI [sic]), DTNB, pH 8.0, 25 °C, 15 min preincubation
Sequence of AChE (acetylcholinesterase from eel) (O42275 24-633): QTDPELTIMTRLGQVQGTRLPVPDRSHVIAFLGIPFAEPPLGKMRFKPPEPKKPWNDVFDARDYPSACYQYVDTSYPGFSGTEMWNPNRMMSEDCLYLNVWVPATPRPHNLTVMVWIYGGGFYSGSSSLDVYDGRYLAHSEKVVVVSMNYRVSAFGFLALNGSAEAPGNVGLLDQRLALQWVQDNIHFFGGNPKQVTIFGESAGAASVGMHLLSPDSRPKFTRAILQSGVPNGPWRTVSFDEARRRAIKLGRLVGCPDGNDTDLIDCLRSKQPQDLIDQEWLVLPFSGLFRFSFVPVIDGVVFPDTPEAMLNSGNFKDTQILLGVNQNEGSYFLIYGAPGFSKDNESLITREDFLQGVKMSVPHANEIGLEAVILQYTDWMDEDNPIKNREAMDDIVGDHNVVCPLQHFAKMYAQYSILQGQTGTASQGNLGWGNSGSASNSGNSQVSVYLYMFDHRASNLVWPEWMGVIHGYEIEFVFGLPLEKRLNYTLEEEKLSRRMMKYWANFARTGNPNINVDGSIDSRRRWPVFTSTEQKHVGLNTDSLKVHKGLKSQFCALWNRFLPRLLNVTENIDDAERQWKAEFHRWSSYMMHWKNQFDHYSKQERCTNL

COc1cc(C=NNC(=O)c2ccccc2)cc(OC)c1O [7a, N′-(4-hydroxy-3,5-dimethoxybenzylidene)benzohydrazide]
Tyrosinase activity (IC50 mM/mL) [1]: 88.73 ± 0.26 mM/mL
Anticholinesterase Activity / BChE assay (IC50 μM/mL) [2]: 122.04 ± 0.87 μM/mL
Anticholinesterase Activity / AChE assay (IC50 μM/mL) (IC50 μM/mL) [3]: 101.04 ± 0.49 μM/mL

COc1cc(C=NNC(=O)c2ccc(Br)cc2)cc(OC)c1O [7b, 4-bromo-N′-(4-hydroxy-3,5-dimethoxybenzylidene)benzohydrazide]
Tyrosinase activity (IC50 mM/mL) [1]: 82.08 ± 1.09 mM/mL
Anticholinesterase Activity / BChE assay (IC50 μM/mL) [2]: 116.82 ± 0.66 μM/mL
Anticholinesterase Activity / AChE assay (IC50 μM/mL) (IC50 μM/mL) [3]: 93.00 ± 1.11 μM/mL

COc1cc(C=NNC(=O)c2ccc(Cl)cc2)cc(OC)c1O [7c, 4-chloro-N′-(4-hydroxy-3,5-dimethoxybenzylidene)benzohydrazide]
Tyrosinase activity (IC50 mM/mL) [1]: 70.91 ± 0.24 mM/mL
Anticholinesterase Activity / BChE assay (IC50 μM/mL) [2]: 102.87 ± 0.48 μM/mL
Anticholinesterase Activity / AChE assay (IC50 μM/mL) (IC50 μM/mL) [3]: 82.14 ± 0.56 μM/mL

COc1cc(C=NNC(=O)c2ccc(F)cc2)cc(OC)c1O [7d, 4-fluoro-N′-(4-hydroxy-3,5-dimethoxybenzylidene)benzohydrazide]
Tyrosinase activity (IC50 mM/mL) [1]: 64.38 ± 0.99 mM/mL
Anticholinesterase Activity / BChE assay (IC50 μM/mL) [2]: 109.44 ± 0.09 μM/mL
Anticholinesterase Activity / AChE assay (IC50 μM/mL) (IC50 μM/mL) [3]: 88.37 ± 0.11 μM/mL

COc1ccc(C(=O)NN=Cc2cc(OC)c(O)c(OC)c2)cc1 [7e, N′-(4-hydroxy-3,5-dimethoxybenzylidene)-4-methoxybenzohydrazide]
Tyrosinase activity (IC50 mM/mL) [1]: 10.15 ± 0.04 mM/mL
Anticholinesterase Activity / BChE assay (IC50 μM/mL) [2]: 96.33 ± 0.61 μM/mL
Anticholinesterase Activity / AChE assay (IC50 μM/mL) (IC50 μM/mL) [3]: 75.01 ± 0.94 μM/mL

COc1cc(C=NNC(=O)c2ccc([N+](=O)[O-])cc2)cc(OC)c1O [7f, N′-(4-hydroxy-3,5-dimethoxybenzylidene)-4-nitrobenzohydrazide]
Tyrosinase activity (IC50 mM/mL) [1]: 18.22 ± 0.35 mM/mL
Anticholinesterase Activity / BChE assay (IC50 μM/mL) [2]: 52.39 ± 0.49 μM/mL
Anticholinesterase Activity / AChE assay (IC50 μM/mL) (IC50 μM/mL) [3]: 40.07 ± 0.25 μM/mL

COc1cc(C=NNC(=O)c2ccccc2C(F)(F)F)cc(OC)c1O [7g, N′-(4-hydroxy-3,5-dimethoxybenzylidene)-2-(trifluoromethyl)benzohydrazide]
Tyrosinase activity (IC50 mM/mL) [1]: 61.07 ± 0.55 mM/mL
Anticholinesterase Activity / BChE assay (IC50 μM/mL) [2]: 83.08 ± 0.34 μM/mL
Anticholinesterase Activity / AChE assay (IC50 μM/mL) (IC50 μM/mL) [3]: 70.13 ± 0.89 μM/mL

COc1cc(C=NNC(=O)c2cccc(C(F)(F)F)c2)cc(OC)c1O [7h, N′-(4-hydroxy-3,5-dimethoxybenzylidene)-3-(trifluoromethyl)benzohydrazide]
Tyrosinase activity (IC50 mM/mL) [1]: 56.88 ± 0.37 mM/mL
Anticholinesterase Activity / BChE assay (IC50 μM/mL) [2]: 88.70 ± 0.77 μM/mL
Anticholinesterase Activity / AChE assay (IC50 μM/mL) (IC50 μM/mL) [3]: 73.75 ± 0.34 μM/mL

COc1cc(C=NNC(=O)c2ccc(C(F)(F)F)cc2)cc(OC)c1O [7i, N′-(4-hydroxy-3,5-dimethoxybenzylidene)-4-(trifluoromethyl)benzohydrazide]
Tyrosinase activity (IC50 mM/mL) [1]: 49.73 ± 0.12 mM/mL
Anticholinesterase Activity / BChE assay (IC50 μM/mL) [2]: 64.09 ± 0.30 μM/mL
Anticholinesterase Activity / AChE assay (IC50 μM/mL) (IC50 μM/mL) [3]: 51.08 ± 0.41 μM/mL

COc1cc(C=NNC(=O)c2cc(C(F)(F)F)cc(C(F)(F)F)c2)cc(OC)c1O [7j, N′-(4-hydroxy-3,5-dimethoxybenzylidene)-3,5-bis-(trifluoromethyl)benzohydrazide]
Tyrosinase activity (IC50 mM/mL) [1]: 40.08 ± 0.86 mM/mL
Anticholinesterase Activity / BChE assay (IC50 μM/mL) [2]: 57.30 ± 0.87 μM/mL
Anticholinesterase Activity / AChE assay (IC50 μM/mL) (IC50 μM/mL) [3]: 44.83 ± 0.12 μM/mL

COc1cc(C=NNC(=O)c2ccccc2OC(F)(F)F)cc(OC)c1O [7k, N′-(4-hydroxy-3,5-dimethoxybenzylidene)-2-(trifluoromethoxy)benzohydrazide]
Tyrosinase activity (IC50 mM/mL) [1]: 29.78 ± 0.43 mM/mL
Anticholinesterase Activity / BChE assay (IC50 μM/mL) [2]: 69.18 ± 0.98 μM/mL
Anticholinesterase Activity / AChE assay (IC50 μM/mL) (IC50 μM/mL) [3]: 59.31 ± 0.77 μM/mL

COc1cc(C=NNC(=O)c2cccc(OC(F)(F)F)c2)cc(OC)c1O [7l, N′-(4-hydroxy-3,5-dimethoxybenzylidene)-3-(trifluoromethoxy)benzohydrazide]
Tyrosinase activity (IC50 mM/mL) [1]: 24.30 ± 0.78 mM/mL
Anticholinesterase Activity / BChE assay (IC50 μM/mL) [2]: 80.62 ± 0.36 μM/mL
Anticholinesterase Activity / AChE assay (IC50 μM/mL) (IC50 μM/mL) [3]: 68.09 ± 0.02 μM/mL

COc1cc(C=NNC(=O)c2ccc(OC(F)(F)F)cc2)cc(OC)c1O [7m, N′-(4-hydroxy-3,5-dimethoxybenzylidene)-4-(trifluoromethoxy)benzohydrazide]
Tyrosinase activity (IC50 mM/mL) [1]: 36.62 ± 0.56 mM/mL
Anticholinesterase Activity / BChE assay (IC50 μM/mL) [2]: 77.26 ± 0.42 μM/mL
Anticholinesterase Activity / AChE assay (IC50 μM/mL) (IC50 μM/mL) [3]: 62.04 ± 0.39 μM/mL
